Common to all, as to assay type: cell-based
The test system of assay [1] is Staphylococcus aureus V41. In words: standard agar-dilution assay (MIC). The following applies: Staphylococcus aureus V41, penicillin-resistant strain, unit assumed. How it is done: (§1) The MIC's in Table II were determined by standard agar-dilution assays. The MIC's in Table III were obtained using a conventional broth-dilution microtiter test.
^b Penicillinresistant strain

Assay [2] has as its system Staphylococcus aureus X400. In words: standard agar-dilution assay (MIC). The following applies: Staphylococcus aureus X400, methicillin-resistant strain, unit assumed. How it is done:
as §1
^c Methicillinresistant-strain

The test system of the next assay is Mycoplasma gallisepticum. In words: conventional broth-dilution microtiter test (MIC). The following applies: unit assumed. The method, then:
as §1

For the next assay, the system named is Mycoplasma hyorhinis. In words: conventional broth-dilution microtiter test (MIC). The following applies: unit assumed. The method, then: as §1
Assay [3] deals with Pasteurella multocida 60A. Put plainly: conventional broth-dilution microtiter test (MIC). The following applies: avian isolate, unit assumed. The method, then: as §1
The subject of assay [4] is Pasteurella multocida 17E. In words: conventional broth-dilution microtiter test (MIC). As to conditions: bovine isolate, unit assumed. The method, then:
as §1

The subject of a further assay is Streptococcus sp. 80. In words: conventional broth-dilution microtiter test (MIC). As to conditions: unit assumed. The method, then:
as §1

The test system of the next assay is Staphylococcus aureus. Put plainly: conventional broth-dilution microtiter test (MIC). The following applies: unit assumed. The method, then:
as §1

The next assay concerns Mycoplasma synoviae. Put plainly: conventional broth-dilution microtiter test (MIC). As to conditions: unit assumed. The method, then:
as §1

In assay [5] the test system is Streptococcus pneumoniae Park I. The following applies: agar dilution, unit assumed. The method, then: as §1
On the technique in general: In agar dilution, organisms are placed on agar that contains the substance at set levels.

For assay [6], the system named is Streptococcus Group D X66. Put plainly: standard agar-dilution assay (MIC). As to conditions: unit assumed. How it is done: as §1
The subject of a further assay is Streptococcus Group 9960. Put plainly: standard agar-dilution assay (MIC). The following applies: unit assumed. The method, then:
as §1

Assay [7] deals with Staphylococcus epidermidis EPI1. Put plainly: standard agar-dilution assay (MIC). As to conditions: unit assumed. How it is done:
as §1

The subject of assay [8] is Staphylococcus epidermidis EPI2. In words: standard agar-dilution assay (MIC). As to conditions: unit assumed. How it is done:
as §1

For assay [9], the system named is Staphylococcus aureus S13E. Put plainly: standard agar-dilution assay (MIC). The following applies: unit assumed. How it is done: as §1
Assay [10] deals with Haemophilus influenzae R252. Put plainly: standard agar-dilution assay (MIC). The following applies: Haemophilus influenzae R252, ampicillin-resistant strain, unit assumed. How it is done:
as §1

Assay [11] concerns Staphylococcus aureus X1.1. Put plainly: standard agar-dilution assay (MIC). As to conditions: unit assumed. The method, then:
as §1

The test system of assay [12] is Haemophilus influenzae Holt. Put plainly: standard agar-dilution assay (MIC). The following applies: ampicillin-sensitive strain, unit assumed. The method, then: as §1
The test system of assay [13] is Streptococcus pyogenes C203. In words: standard agar-dilution assay (MIC). As to conditions: unit assumed. How it is done: as §1

SMILES strings stand for the structures. In brackets after ≈: the same amount, converted by molar mass.

As for `CCC1OC(=O)CC(O)C(C)C(OC2OC(C)C(OC3CC(C)(O)C(O)C(C)O3)C(N(C)C)C2O)C(CC=O)CC(C)C(=O)C=CC(C)=CC1COC(=O)NCCCCCCCCN` (stereo not shown) [Compound 27], the MIC was 2 µg/mL (≈ 2.19 µM) in assay [1]; 8 µg/mL (≈ 8.77 µM) in [2]; 0.78 µg/mL (≈ 0.855 µM) in the assay on Mycoplasma gallisepticum; 3.12 µg/mL (≈ 3.42 µM) in the assay on Mycoplasma hyorhinis; 50 µg/mL (≈ 54.8 µM) in assay [3]; 25 µg/mL (≈ 27.4 µM) in assay [4]. The MIC is 0.78 µg/mL (≈ 0.855 µM) in the assay with Streptococcus sp. 80; 6.25 µg/mL (≈ 6.85 µM) against Staphylococcus aureus; 3.12 µg/mL (≈ 3.42 µM) against Mycoplasma synoviae; 0.25 µg/mL (≈ 0.274 µM) in [5]; 4 µg/mL (≈ 4.39 µM) in assay [6]; 4 µg/mL (≈ 4.39 µM) against Streptococcus Group 9960. In addition, the MIC in [7] stood at 2 µg/mL (≈ 2.19 µM); in assay [8], 4 µg/mL (≈ 4.39 µM); in assay [9], 4 µg/mL (≈ 4.39 µM); in [10], 32 µg/mL (≈ 35.1 µM); in assay [11], 2 µg/mL (≈ 2.19 µM); in [12] it was 32 µg/mL (≈ 35.1 µM). In addition, in [13], the MIC came out at 1 µg/mL (≈ 1.1 µM).

Consider `CCC1OC(=O)CC(O)C(C)C(OC2OC(C)C(OC3CC(C)(O)C(O)C(C)O3)C(N(C)C)C2OC(=O)Cc2ccccc2)C(CC=O)CC(C)C(=O)C=CC(C)=CC1COC(=O)Cc1ccccc1` (stereo not shown) [Compound 17], for which the MIC in assay [1] worked out at 1 µg/mL (≈ 1.02 µM); in assay [2], 2 µg/mL (≈ 2.04 µM); against Mycoplasma gallisepticum, 0.78 µg/mL (≈ 0.797 µM); against Mycoplasma hyorhinis, 6.25 µg/mL (≈ 6.39 µM); in [3] it was 25 µg/mL (≈ 25.6 µM); in [4], 6.25 µg/mL (≈ 6.39 µM). For the same compound, the MIC was 0.78 µg/mL (≈ 0.797 µM) with Streptococcus sp. 80; 0.78 µg/mL (≈ 0.797 µM) with Staphylococcus aureus; 1.56 µg/mL (≈ 1.59 µM) against Mycoplasma synoviae; 0.125 µg/mL (≈ 0.128 µM) in assay [5]; 1 µg/mL (≈ 1.02 µM) in [6]; 1 µg/mL (≈ 1.02 µM) with Streptococcus Group 9960. Further, the MIC in [7] was 1 µg/mL (≈ 1.02 µM); in assay [8], 1 µg/mL (≈ 1.02 µM); in assay [9], 1 µg/mL (≈ 1.02 µM); in assay [10], above 128 µg/mL; in assay [11], 1 µg/mL (≈ 1.02 µM); in assay [12], above 128 µg/mL. This compound also had an MIC in assay [13] of 0.5 µg/mL (≈ 0.511 µM).

Take `CCC1OC(=O)CC(O)C(C)C(OC2OC(C)C(OC3CC(C)(O)C(O)C(C)O3)C(N(C)C)C2OC(C)=O)C(CC=O)CC(C)C(=O)C=CC(C)=CC1COC(=O)C(C)(C)C` (stereo not shown) [Compound 8]: the MIC in [1] was found to be 0.5 µg/mL (≈ 0.576 µM); in [2], 1 µg/mL (≈ 1.15 µM); against Mycoplasma gallisepticum, 0.39 µg/mL (≈ 0.449 µM); with Mycoplasma hyorhinis, 3.12 µg/mL (≈ 3.59 µM); in assay [3], 12.5 µg/mL (≈ 14.4 µM); in assay [4] it was 12.5 µg/mL (≈ 14.4 µM). Moreover, the MIC against Streptococcus sp. 80 was above 0.78 µg/mL; with Staphylococcus aureus, 3.12 µg/mL (≈ 3.59 µM); against Mycoplasma synoviae it was 0.39 µg/mL (≈ 0.449 µM); in assay [5], 0.06 µg/mL (≈ 0.0691 µM); in assay [6], 0.5 µg/mL (≈ 0.576 µM); against Streptococcus Group 9960, 0.5 µg/mL (≈ 0.576 µM). In addition, the MIC in assay [7] was found to be 0.5 µg/mL (≈ 0.576 µM); in assay [8], 1 µg/mL (≈ 1.15 µM); in assay [9] it was 0.5 µg/mL (≈ 0.576 µM); in assay [10], 4 µg/mL (≈ 4.61 µM); in [11] it was 0.5 µg/mL (≈ 0.576 µM); in [12], 16 µg/mL (≈ 18.4 µM). This compound also displayed an MIC in [13] of 0.25 µg/mL (≈ 0.288 µM).

Take `CCC1OC(=O)CC(O)C(C)C(OC2OC(C)C(OC3CC(C)(O)C(O)C(C)O3)C(N(C)C)C2OC(C)=O)C(CC=O)CC(C)C(=O)C=CC(C)=CC1COC(=O)n1ccnc1` (stereo not shown) [Compound 21]: the MIC in assay [1] was found to be 2 µg/mL (≈ 2.28 µM); in assay [2], 2 µg/mL (≈ 2.28 µM); against Mycoplasma gallisepticum it was 0.78 µg/mL (≈ 0.888 µM); in the assay with Mycoplasma hyorhinis, 1.56 µg/mL (≈ 1.78 µM); in [3], 12.5 µg/mL (≈ 14.2 µM); in assay [4], 12.5 µg/mL (≈ 14.2 µM). For the same compound, the MIC with Streptococcus sp. 80 came out at 0.78 µg/mL (≈ 0.888 µM); in the assay with Staphylococcus aureus, 6.25 µg/mL (≈ 7.12 µM); with Mycoplasma synoviae it was 0.78 µg/mL (≈ 0.888 µM); in assay [5], 0.125 µg/mL (≈ 0.142 µM); in assay [6], 2 µg/mL (≈ 2.28 µM); against Streptococcus Group 9960 it was 1 µg/mL (≈ 1.14 µM). The MIC in [7] stood at 2 µg/mL (≈ 2.28 µM); in assay [8], 2 µg/mL (≈ 2.28 µM); in assay [9], 1 µg/mL (≈ 1.14 µM); in assay [10], 8 µg/mL (≈ 9.11 µM); in assay [11] it was 1 µg/mL (≈ 1.14 µM); in [12], 16 µg/mL (≈ 18.2 µM). This compound also had an MIC in assay [13] of 0.5 µg/mL (≈ 0.569 µM).

The values are drawn from patent publication US4396613A, “23-Ester derivatives of DMT and method of using same” (Eli Lilly and Company, priority 1981, dated 1983).
